No end group written: not given here. Cy5.5 = near-infrared fluorophore Cy5.5
Key:
Barrett's neoplasia = conditions: topical to mucosal surface, clinic, ref [19], [20], cited from earlier work
Protocol: An empiric peptide labeled with FITC was administered topically to the mucosal surface. Early neoplasia was detected with 94% specificity and 96% positive predictive value. Included in the analysis were 28 flat lesions (Paris 0-IIb) that were poorly visualized with white light. […] Peptides have high diversity, and can achieve high specificity with binding affinities on the ...

[1] = system: QhTERT cells that express FGFR2c; assay: Competition for binding of SRR^*-Cy5.5 with unlabeled peptide, confocal microscopy; type: cell-based, human; conditions: 30 min at 4°C, then 5 μM SRR^*-Cy5.5, 30 min at 4°C
Protocol: Specific peptide binding to QhTERT/FGFR2c was validated on competitive inhibition with addition of unlabeled peptide. ~10^3 cells were grown to ~70% confluence on cover glass in triplicate. Unlabeled peptides at concentrations of 0, 50, 100, 150, 250, and 500 μM were incubated with the cells for 30 min at 4°C. The cells were washed and incubated with 5 μM of the target peptide for another 30 min at 4°C. The cells were washed and fixed with 4% PFA for 5 min. The cells were washed with PBS and mounted with ProLong Gold reagent containing DAPI (Invitrogen).

[2] = Fluorescence spectra of Cy5.5-labeled peptides; type: physicochemical; conditions: 10 μM in PBS, excitation λex = 671 nm
Source text: We synthesized the 12 amino acid sequence SRRPASFRTARE (black) and attached the fluorophore Cy5.5 (red) via a GGGSK linker (blue) on the C-terminus, hereafter SRR^*-Cy5.5, Figure 1A. Cy5.5 was chosen for photostability and high quantum yield in the near-infrared (NIR) spectrum. We used a linker to prevent steric hindrance of the peptide by the dye. We then used a structural model (1EV2), [24] […] This domain is the same in either isoform FGFR2IIIb or FGFR2IIIc. We also used this model to develop a scrambled sequence SPSRERTFRARA for a control, Figure 1C. This peptide was also labeled with Cy5.5 via a GGGSK linker, hereafter SPS^*-Cy5.5. For SPS^*-Cy5.5, we calculated Et = −277.37. […] We purified SRR^*-Cy5.5 and […] to >97% on HPLC, and measured an experimental mass-to-charge (m/z) ratio on mass spectrometry of 2385.31 for both peptides that agreed with the expected value, Supplementary Figure 3.
Figure 1 Peptide specific for FGFR2 Chemical structure is shown for 12 amino acid (aa) peptide sequence (A) SRRPASFRTARE (SRR^*) found to be specific for FGFR2, and (B) scrambled peptide SPSRERTFRARA (SPS^*) used for control. A Cy5.5 fluorophore (red) is attached via a GGGSK linker (blue) to prevent steric hindrance.

[3] = system: QhTERT cells that express FGFR2b; assay: Confocal fluorescence microscopy, binding to QhTERT cells that express FGFR2b; type: cell-based, human; conditions: 1 μM peptide, 10 min at RT; confocal, 63X
Source text: (§1) All human esophageal specimens were obtained with written, informed patient consent per approval and guidelines of the University of Michigan Institutional Review Board (IRB). Human non-dysplastic Barrett's esophagus (BE) cells immortalized with hTert (QhTERT) were obtained from the American Type Culture Collection (ATCC) and cultured in keratinocyte-serum free medium containing bovine pituitary extract and human recombinant EGF (ThermoFisher #17005042). QhTERT cells with stable expression of FGFR2b or FGFR2c were provided (DGB). We cultured these cells with keratinocyte-serum free medium containing bovine pituitary extract and human recombinant EGF (ThermoFisher #17005042) and added 1 μg/mL of puromycin-dihydrochloride (Invitrogen #A11138-03). All cells were cultured at 37°C in 5% CO2, and were passaged using 0.25% EDTA containing trypsin (Mediatech Inc). A hemocytometer was used to determine cell number. Peptide synthesis reagents were obtained from either Anaspec or AAPPTEC with the highest grade available (>99% purity) and used without further purification. Solvents and other chemical reagents were obtained from Sigma-Aldrich, unless otherwise stated.
(§2) ~10^3 QhTERT/wt, QhTERT/FGFR2b, and QhTERT/FGFR2c cells were grown on cover glass to ~80% confluence. The cells were washed with PBS 1X and incubated with 1 μM of either peptide for 10 min at RT. The cells were then washed 3X in PBS, fixed with 4% paraformaldehyde (PFA) for 5 min, washed 1X with PBS, and then mounted on glass slides with ProLong Gold reagent containing DAPI (Invitrogen). Confocal fluorescence images were collected with Cy5.5 and DAPI filters (Leica Inverted SP5X 2-Photon FLIM confocal microscopes) using a 63X oil-immersion objective. Fluorescence intensities from 3 cells in each of 3 independent images were quantified using custom Matlab (Mathworks) software.

[4] = system: QhTERT cells that express FGFR2c; assay: Confocal fluorescence microscopy, binding to QhTERT cells that express FGFR2c; type: cell-based, human; conditions: 1 μM peptide, 10 min at RT; confocal, 63X
Source text: as §1, §2

QhTERT wild-type cells = assay: Confocal fluorescence microscopy, binding to wild-type QhTERT cells; type: cell-based, human; conditions: 1 μM peptide, 10 min at RT, 63X
Source text: as §1, with “Peptide synthesis reagents were obtained from either Anaspec or AAPPTEC with the highest grade available (>99% purity) and used without further purification. Solvents and other chemical reagents were obtained from Sigma-Aldrich, unless otherwise stated.” left out
~10^3 QhTERT/wt, QhTERT/FGFR2b, and QhTERT/FGFR2c cells were grown on cover glass to ~80% confluence. […] Confocal fluorescence images were collected with Cy5.5 and DAPI filters (Leica Inverted SP5X 2-Photon FLIM confocal microscopes) using a 63X oil-immersion objective. Fluorescence intensities from 3 cells in each of 3 independent images were quantified using custom Matlab (Mathworks) software.

[5] = system: FGFR2b, AKT, ERK phosphorylation in QhTERT cells; assay: Western blot, effect of peptide binding on cell signaling, QhTERT cells expressing FGFR2b; type: cell-based, human; conditions: 20 min
Protocol: (§3) QhTERT cells that overexpress either FGFR2b or FGFR2c were seeded in 12-well flat-bottom plates with 500 μL of serum-free medium for 16 hours. FGF1 (#2232-FA-025, R&D systems) was reconstituted to a concentration of 100 μg/mL using PBS, diluted with 0.1% bovine serum albumin, and added to the cells at final concentrations of 100 ng/mL for 20 min in separate wells. Heparin (# H3149-10KU, Sigma) with final concentration of 100 units/mL was also added to increase stability. In addition, peptides at concentrations of 5 and 100 μM were incubated for 20 min in separate wells. The cells were washed with PBS and lysed in RIPA buffer containing protease inhibitors (#11836170001, Roche, Basel, Switzerland). Lysates were separated by gel electrophoresis, transferred to polyvinylidene difluoride membranes (#ISEQ00010, Millipore), and detected by immunoblotting using an enhanced chemiluminescence system (#RPN2106, GE Healthcare). Anti-FGFR2 antibody (#SC122, Santa Cruz Biotechnology), anti-phospho-FGFR (#3471, Cell Signaling Technology), anti-AKT (#4691P, Cell Signaling Technology), anti-ERK1/2 (#4695P, Cell Signaling Technology), anti-phospho-AKT (pS473; #4060P, Cell Signaling Technology), anti-phospho-ERK1/2 (#4370P, Cell Signaling Technology), and anti-tubulin (#32–2600, Invitrogen) were used as per manufacturer's instructions.

[6] = system: FGFR2c, AKT, ERK phosphorylation in QhTERT cells; assay: Western blot, effect of peptide binding on cell signaling, QhTERT cells expressing FGFR2c; type: cell-based, human; conditions: 20 min
Protocol: as §3

FGFR2c on QhTERT cells = target: T1, FGFR2c on QhTERT cells (UniProt P21802-1 22-821); assay: flow cytometry on cells; apparent dissociation constant; Cy5.5-labeled peptide 0 to 200 nM in 25 nM increments in PBS, ~10^5 QhTERT/FGFR2c cells, 4°C for 1 hour, mean fluorescence intensity; conditions: one partner purified
T1 construct: fibroblast growth factor receptor 2, isoform IIIc (C-terminus of D3 encoded by exon 9), stably expressed in human QhTERT cells; also called FGFR2IIIc; isoform IIIc of FGFR2
T1 sequence (P21802 22-821): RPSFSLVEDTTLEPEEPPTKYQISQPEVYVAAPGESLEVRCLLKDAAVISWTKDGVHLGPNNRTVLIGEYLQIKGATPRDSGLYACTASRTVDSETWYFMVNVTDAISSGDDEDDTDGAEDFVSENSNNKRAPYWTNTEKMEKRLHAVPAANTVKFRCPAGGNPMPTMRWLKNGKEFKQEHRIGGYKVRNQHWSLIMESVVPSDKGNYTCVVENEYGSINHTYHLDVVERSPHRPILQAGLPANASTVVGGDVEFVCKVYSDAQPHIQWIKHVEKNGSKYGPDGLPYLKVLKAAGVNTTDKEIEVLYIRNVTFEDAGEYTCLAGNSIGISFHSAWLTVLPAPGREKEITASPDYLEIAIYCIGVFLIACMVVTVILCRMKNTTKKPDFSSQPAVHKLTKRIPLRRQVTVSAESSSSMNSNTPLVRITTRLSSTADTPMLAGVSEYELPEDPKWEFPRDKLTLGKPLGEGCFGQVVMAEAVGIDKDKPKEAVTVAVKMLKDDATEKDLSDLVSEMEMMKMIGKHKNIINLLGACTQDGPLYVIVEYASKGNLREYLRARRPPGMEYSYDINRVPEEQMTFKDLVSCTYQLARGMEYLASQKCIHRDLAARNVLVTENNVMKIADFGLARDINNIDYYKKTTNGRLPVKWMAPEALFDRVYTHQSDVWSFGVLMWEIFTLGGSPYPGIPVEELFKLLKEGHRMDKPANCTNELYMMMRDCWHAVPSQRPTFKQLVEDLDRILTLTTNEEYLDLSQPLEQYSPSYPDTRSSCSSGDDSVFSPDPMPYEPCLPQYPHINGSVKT

[7] = FGF1 100 ng/mL, heparin 100 units/mL

ASYNYDA [empiric peptide labeled with FITC, 7 amino acid peptide ASYNYDA that was labeled with FITC]
positive predictive value, early neoplasia detection (Barrett's neoplasia; included 28 flat lesions): 96%
specificity, early neoplasia detection (Barrett's neoplasia; included 28 flat lesions): 94%
time of binding (Barrett's neoplasia): ≤ 5 min

SPSRERTFRARA [SPS^*, unlabeled scrambled peptide … used for control]
mean fluorescence intensity of SRR^*-Cy5.5 with unlabeled control peptide ([1]; unlabeled SPS^* at any concentration (0, 50, 100, 150, 250, 500 μM)): No significant difference

SPSRERTFRARA [SPS^*-Cy5.5]
peak emission λem [2]: 710 nm
cell surface fluorescence signal / binding [3]: Minimal binding
cell surface fluorescence signal / binding [4]: Minimal binding
cell surface fluorescence signal / binding (QhTERT wild-type cells): Minimal binding

SRRPASFRTARE [SRR^*, unlabeled 12 amino acid peptide … specific for FGFR2]
mean fluorescence intensity of SRR^*-Cy5.5 with unlabeled target peptide ([1]; unlabeled SRR^* at 50 μM and greater vs 0 μM): significant reduction
phosphorylation of FGFR2 (p-FGFR), AKT (p-AKT) and ERK (p-ERK) ([5]; peptide at 5 or 100 μM): no change in phosphorylation
phosphorylation of FGFR2 (p-FGFR), AKT (p-AKT) and ERK (p-ERK) ([6]; peptide at 5 or 100 μM): no change in phosphorylation

FGF1: FGF1 (#2232-FA-025, R&D systems), positive control [reference compound]
phosphorylation of FGFR2 (p-FGFR), AKT (p-AKT) and ERK (p-ERK), positive control [5, 7]: to some extent
phosphorylation of FGFR2 (p-FGFR), AKT (p-AKT) and ERK (p-ERK), positive control [6, 7]: strong phosphorylation activity

B1: SRR*-Cy5.5 (peptide)
peptide: SRRPASFRTAREGGGSK(Cy5.5)-NH2
notes: 12-residue peptide selected by phage display (Ph.D.-12 library) against FGFR2-ECD; linker on the C-terminus that carries the Cy5.5; Assembled on rink amide MBHA resin, so the C-terminus is probably an amide; also called FGFR2 peptide; source: synthetic peptide (Fmoc solid-phase synthesis, prep-HPLC, >97%)
Kd (FGFR2c on QhTERT cells): 68 nM

— publication PMC5675618, “Identification and validation of FGFR2 peptide for detection of early Barrett's neoplasia” (Oncotarget, 2017)
